Assay results from doi:10.1101/2025.06.05.657999, “A secreted fatty acid- and retinol- binding protein from Heligmosomoides polygyrus suppresses host macrophage polarization” (bioRxiv, 2025).

Assays:
[1] = target: T1, Hp-FAR-2 (Heligmosomoides polygyrus, UniProt A0A183GLK6); assay: fluorescence titration of retinol, one-site fit; assay type: binding
T1 construct: mature protein, residues 18-180 of 180 (signal peptide removed), N-terminal 6-His tag, pET histev N'term, E. coli BL21(DE3), Ni-NTA and SEC; ~17-18 kDa on SDS-PAGE

[2] = target: T1, Hp-FAR-2; assay: fluorescence titration, one-site fit; assay type: binding

T1 sequence (A0A183GLK6 entry or part of it): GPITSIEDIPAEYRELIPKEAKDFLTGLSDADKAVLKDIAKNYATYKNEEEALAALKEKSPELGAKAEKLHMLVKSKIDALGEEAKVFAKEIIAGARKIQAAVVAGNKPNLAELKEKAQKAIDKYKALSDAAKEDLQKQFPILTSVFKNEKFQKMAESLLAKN

Structure (SMILES)	Kd [1] [µM]	Kd [2] [µM]
CC1=C(/C=C/C(C)=C/C=C/C(C)=C/CO)C(C)(C)CCC1 [retinol]	6.55	
CN(C)c1cccc2c(S(=O)(=O)NCCCCCCCCCCC(=O)O)cccc12 [DAUDA]		2.65
